Drawing on article PMC4926365, “Expression and Characterization of a Novel Glycerophosphodiester Phosphodiesterase from Pyrococcus furiosus DSM 3638 That Possesses Lysophospholipase D Activity” (International Journal of Molecular Sciences, 2016), this text covers colorimetric p-nitrophenol release for one molecule.

In the test the target is T1, pfGDPD (Pyrococcus furiosus, UniProt Q8TZI9).
T1 construct: gene PF2003; full length 253 aa, no signal peptide; synthetic gene in pET28a, N- and C-terminal His6 tags kept; E. coli SHuffle T7; Ni-NTA; 34,059 Da
T1 sequence (Q8TZI9 1-253): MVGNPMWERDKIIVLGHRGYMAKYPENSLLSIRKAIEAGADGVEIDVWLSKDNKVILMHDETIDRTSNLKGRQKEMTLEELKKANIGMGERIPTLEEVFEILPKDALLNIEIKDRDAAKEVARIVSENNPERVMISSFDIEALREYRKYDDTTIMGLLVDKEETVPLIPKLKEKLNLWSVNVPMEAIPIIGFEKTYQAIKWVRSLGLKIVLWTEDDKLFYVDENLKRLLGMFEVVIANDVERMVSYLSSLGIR
Nature of the test: colorimetric p-nitrophenol release. The test is classed as biochemical. The settings on record: Mn2+ (best at 5 mM), 50 mM Tris-HCl pH 8.5, 55 °C.

For `O=[N+]([O-])c1ccc(OP(=O)(O)Oc2ccc([N+](=O)[O-])cc2)cc1` [bis(p-nitrophenyl) phosphate], the colorimetric p-nitrophenol release entry is “The optimal temperature of recombinant pfGDPD was determined using BpNPP as substrate”.
